Measured values taken from the supplement of paper PMC10307832.

Legend:
Test in all cases: relative viability (nuclei count vs DMSO), 5 days (fraction); higher = more cells survive
Motesanib + Crizotinib = compound: CC1(C)CNc2cc(NC(=O)c3cccnc3NCc3ccncc3)ccc21 [Motesanib] + C[C@@H](Oc1cc(-c2cnn(C3CCNCC3)c2)cnc1N)c1c(Cl)ccc(F)c1Cl [Crizotinib] (partner 1 µM)
How it was run: (§1)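 Dosing by pin tool came one day after lung cancer cell lines were seeded in 1536-well plates, using either one drug or a fixed anchor-drug dose plus five library-drug doses (not always all listed) in √10 steps. After 5 days, nuclei were counted on 4× images. Relative viability is treated-well nuclei count divided by vehicle-well nuclei count, and values are medians of duplicate plates.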

[1] = compound: C[C@@]1(C(=O)Nc2ccc(F)nc2)CCCN1c1nc(Nc2cc(C3CC3)n[nH]2)c2cccn2n1 + N=C(N)NC(=N)NCCc1ccccc1 [Phenformin] (partner 250 µM)
How it was run: as §1

[2] = compound: C[C@@]1(C(=O)Nc2ccc(F)nc2)CCCN1c1nc(Nc2cc(C3CC3)n[nH]2)c2cccn2n1 + CC(C)C[C@H](NC(=O)[C@H](Cc1ccccc1)NC(=O)c1cnccn1)B(O)O [Bortezomib] (partner 0.002 µM)
How it was run: as §1

Motesanib + Pictilisib = compound: CC1(C)CNc2cc(NC(=O)c3cccnc3NCc3ccncc3)ccc21 [Motesanib] + CS(=O)(=O)N1CCN(Cc2cc3nc(-c4cccc5[nH]ncc45)nc(N4CCOCC4)c3s2)CC1 [Pictilisib] (partner 1 µM)
How it was run: as §1

Work on UMC-11 yielded a relative viability (Motesanib + Crizotinib; first compound 0.01 µM) of 0.526, a relative viability (Motesanib + Crizotinib; first compound 0.03162 µM) of 0.657 and a relative viability (Motesanib + Crizotinib; first compound 0.1 µM) of 0.631. It also gave a relative viability (Motesanib + Crizotinib; first compound 0.3162 µM) of 0.595, a relative viability (Motesanib + Crizotinib; first compound 1 µM) of 0.742 and a relative viability ([1]; first compound 0.04 µM) of 0.341. For the same cell line, the relative viability ([1]; first compound 0.1265 µM) was 0.339, the relative viability ([1]; first compound 0.4 µM) was 0.347 and the relative viability ([1]; first compound 1.265 µM) was 0.277. It also gave a relative viability ([2]; first compound 0.04 µM) of 0.79, a relative viability ([2]; first compound 0.1265 µM) of 0.829 and a relative viability ([2]; first compound 0.4 µM) of 0.598. For the same cell line, the relative viability ([2]; first compound 1.265 µM) was 0.733, the relative viability (Motesanib + Pictilisib; first compound 0.01 µM) was 0.778 and the relative viability (Motesanib + Pictilisib; first compound 0.03162 µM) was 0.923. It also gave a relative viability (Motesanib + Pictilisib; first compound 0.1 µM) of 0.5, a relative viability (Motesanib + Pictilisib; first compound 0.3162 µM) of 0.759 and a relative viability (Motesanib + Pictilisib; first compound 1 µM) of 0.863.
